Reference: US11883383B2, “Pharmaceutically acceptable salts of [3-(4- {2-butyl-1-[4-(4-chloro-phenoxy)-phenyl]-1H-imidazol-4-yl} -phenoxy)-propyl]-diethyl-amine” (vTv Therapeutics LLC, priority 2018, dated 2024)
Like-named read-outs stand apart in the source and are kept apart here.

Key:
Format in all cases: physicochemical
[1] = Thermogravimetric analysis (TGA) weight loss of crystalline hits; details: for Speculated Form: based on TGA/DSC characterization data
Description: (§1) TGA data were collected using a TA Q500 and Q550 from TA Instruments. DSC was performed using a TA Q2000 from TA Instruments. DSC was calibrated with Indium reference standard and the TGA was calibrated using nickel reference standard.
(§2) All hits were further characterized by TGA and DSC, with the stoichiometry determined by ^1H NMR or HPLC/IC. Based on the characterization data in Table 2 below, most of them were considered to be anhydrates.

[2] = Differential scanning calorimetry (DSC) endotherms of crystalline hits; details: for DSC Endo. (onset, ° C.): onset temperature
Description: as §1, §2

[3] = Stoichiometry (acid/freebase) by 1H NMR or HPLC/IC
Text: Solution NMR was collected on Bruker 500M NMR Spectrometer using DMSO-d6 and CD3OD as solvents.
Agilent 1100 HPLC was utilized to analyze the purity and stoichiometry, with detailed method listed in below.
IC method for counter-ion content measurement is listed below.
as §2

[4] = Salt/co-crystal screening: 38 acids, eight solvent systems, solids analysed by XRPD; details: acid/freebase charge 1:1 unless label says 2:1, stirred at RT, else 5° C. slurry, anti-solvent addition or evaporation (footnote marks)
Description: XRPD analysis was performed with a Panalytical X'Pert^3 Powder XRPD on a Si zero-background holder. The 2θ position was calibrated against Panalytical Si reference standard disc.
A total of 320 salt/co-crystal screening experiments were conducted using 38 acids (two molar ratios for HCl and HBr) and eight solvent systems. Specifically, freebase stock solutions of ˜100 mg/mL were first prepared in each solvent system. For each experiment, 0.2 mL stock solution and the corresponding acids were mixed in a molar charge ratio of 1:1 (acid/freebase, 2:1 for HCl/freebase and HBr/freebase as well), and then stirred at RT. After stirring for 3-5 days, if precipitation was observed, the precipitate was isolated. It no precipitation, the clear solutions were first transferred to slurry at 5° C. to introduce precipitation. Solutions without any precipitation were further subjected to anti-solvent addition (for solvents in column B/D, 0.5 mL hexane was added; for solvents in column G/H, 0.5 mL water was added; for solvent in column F, 0.5 mL n-heptane was added). If still no precipitation, the final clear solutions were transferred to evaporation at RT to induce precipitation. All solids isolated were vacuum dried at RT for 2 hrs before XRPD analysis.

Structure (SMILES)	Speculated Form [1]	Stoichiometry (acid/base) [3]	Solid obtained in salt screening (XRPD), solvent D Acetone/Hexane (1:2, v/v) [4]	Solid obtained in salt screening (XRPD), solvent H Dioxane/H2O (9:1, v/v) [4]	Solid obtained in salt screening (XRPD), solvent A Ethanol [4]	Solid obtained in salt screening (XRPD), solvent B Ethyl acetate/Hexane (1:2, v/v) [4]	Solid obtained in salt screening (XRPD), solvent G Methanol/H2O (19:1, v/v) [4]	Solid obtained in salt screening (XRPD), solvent F Methyl tertbutyl ether [4]	Solid obtained in salt screening (XRPD), solvent C THF [4]	Solid obtained in salt screening (XRPD), solvent E Toluene [4]	further results
Br.CCCCc1nc(-c2ccc(OCCCN(CC)CC)cc2)cn1-c1ccc(Oc2ccc(Cl)cc2)cc1 [HBr salt Type A]	Anhydrate	1.05									TGA Wt. Loss (%) [1]: negligible; DSC Endo. (onset, ° C.) [2]: 169.9 °C
Br.CCCCc1nc(-c2ccc(OCCCN(CC)CC)cc2)cn1-c1ccc(Oc2ccc(Cl)cc2)cc1 [HBr salt Type B]	Anhydrate	2.07									TGA Wt. Loss (%) [1]: negligible
CCCCc1nc(-c2ccc(OCCCN(CC)CC)cc2)cn1-c1ccc(Oc2ccc(Cl)cc2)cc1.O=C(O)C[C@H](O)C(=O)O [L-Malate Type A]	Anhydrate	1.11									TGA Wt. Loss (%) [1]: negligible; DSC Endo. (onset, ° C.) [2]: 67.8 °C
CCCCc1nc(-c2ccc(OCCCN(CC)CC)cc2)cn1-c1ccc(Oc2ccc(Cl)cc2)cc1.O=C(O)C(O)C(O)C(=O)O [L-Tartrate Type A]	Hydrate	1.00									TGA Wt. Loss (%) ([1]; up to 60° C.): 2.1 up to %; DSC Endo. (onset, ° C.) [2]: 76.4 °C
CCCCc1nc(-c2ccc(OCCCN(CC)CC)cc2)cn1-c1ccc(Oc2ccc(Cl)cc2)cc1.O=C(O)/C=C/C(=O)O [Fumarate Type A]	Anhydrate	1.00									TGA Wt. Loss (%) [1]: negligible; DSC Endo. (onset, ° C.) [2]: 115.0 °C
CCCCc1nc(-c2ccc(OCCCN(CC)CC)cc2)cn1-c1ccc(Oc2ccc(Cl)cc2)cc1.O=C(O)[C@@H](O)[C@H](O)[C@H](O)[C@@H](O)C(=O)O [Galactarate Type A]	Anhydrate	0.98									TGA Wt. Loss (%) ([1]; up to 130° C.): 0.6 up to %; DSC Endo. (onset, ° C.) [2]: 158.4 °C; DSC Endo., peak temperature ([2]; peak temperature (footnote *)): 106.3 °C
CCCCc1nc(-c2ccc(OCCCN(CC)CC)cc2)cn1-c1ccc(Oc2ccc(Cl)cc2)cc1.COc1cc(C(=O)O)ccc1O [Vanillate Type A]	Anhydrate	1.04									TGA Wt. Loss (%) [1]: negligible; DSC Endo. (onset, ° C.) [2]: 99.6 °C
CCCCc1nc(-c2ccc(OCCCN(CC)CC)cc2)cn1-c1ccc(Oc2ccc(Cl)cc2)cc1.O=C(O)c1cc(O)ccc1O [Gentisate Type A]	Hydrate	1.01									TGA Wt. Loss (%) ([1]; up to 120° C.): 1.8 up to %
O=C(O)[C@H](O)c1ccccc1 [R-mandelic acid]			gel	amorphous*	amorphous*	gel*	amorphous*	gel	gel	gel	
O=C(O)/C=C/c1ccccc1 [trans Cinnamic acid]			gel	amorphous*	amorphous	gel	amorphous*	amorphous*	gel	gel	
O=C(O)C(O)C(O)C(=O)O [L-tartartic acid]							amorphous*				
CCCCCCCCCCCCCCCCCC(=O)O [Stearic acid]				amorphous^&				FB Type A*			
O=C1NS(=O)(=O)c2ccccc21 [Saccharin]			gel	amorphous*	amorphous*				gel	gel	
Br.CCCCc1nc(-c2ccc(OCCCN(CC)CC)cc2)cn1-c1ccc(Oc2ccc(Cl)cc2)cc1 [HBr (1:1)]				gel*							
O=C(O)CC(=O)O [Malonic acid]			amorphous*	amorphous*	gel*	amorphous*	amorphous*	gel*	gel*	gel*	
C[C@H](O)C(=O)O [L-lactic acid]			gel	amorphous*	amorphous*	gel*	amorphous*	gel	gel	gel*	
COc1cc(C(=O)O)ccc1O [Vanillic acid]				amorphous*	amorphous		amorphous*		gel	gel	
CCCCCC(=O)O [Hexanoic acid]			gel*	FB Type A*	gel	gel*	amorphous*	FB Type B^&	gel	gel	
O=C(O)c1cc(O)ccc1O [Gentisic acid]					gel*				gel*		
O=C(O)CNC(=O)c1ccccc1 [Hippuric acid]			amorphous*	amorphous*	gel*		amorphous*		gel*	gel*	
CS(=O)(=O)O [Methane sulfonic acid]			gel	gel*	gel*		gel*	amorphous	gel	gel*	
O=C(O)CCC(=O)O [Succnic acid]			amorphous*	amorphous*	gel*	amorphous*	amorphous*	FB Type B*	gel*	gel*	
O=C(O)c1ccc2ccccc2c1O [1-hydroxy-2-naphthoic acid]			gel	amorphous*	amorphous*	gel*	amorphous*	gel	gel	gel	
